Experimental data from patent US5254533A, “Elfamycin” (Rhone-Poulenc Rorer S.A., priority 1990, dated 1993).

Experiments:
Assay in all cases: MIC, antibacterial activity (agar dilution)
Type in all cases: cell-based
[1] = tested on: Bacteroides thetaiotaomicron ATCC 29741; conditions: ATCC29741, anaerobic, Mueller Hinton Agar + 2% Fildes, about 48 h at about 37° C
Description: (§1) Description of the test method used
(§2) The strains used, identified in the following table, were thawed at the time of use and then diluted to obtain the following concentrations:
(§3) 10^7 bacteria/ml for the aerobic bacteria
(§4) 10^6 bacteria/ml for the anaerobic bacteria.
(§5) A stock suspension of the product of formula (II) was prepared at a concentration of 3000 mg/1 in water. It was then diluted with water to obtain concentrations of 300 mg/l, 100 mg/l, 50 mg/l and 25 mg/l.
(§6) The culture media were the following:
(§7) Mueller Hinton Agar (MHA) for the aerobic cultures
(§8) Mueller Hinton Agar (MHA)+2% Fildes (MHA) for the anaerobic cultures.
(§9) Each dilution of product was added to 20 mls of the culture medium maintained supercooled at 45° C., and the medium was then poured into Petri dishes. After gentle agitation, the dishes were dried open for about 1 hour at about 37° C.
(§10) Inoculation was carried out with a DENLEY multipoint inoculator, which deposited 10^-3 ml of each inoculum per spot.
(§11) Reading was performed after about 18 hours of incubation at about 37° C. for the aerobes and about 48 hours at about 37° C. for the anaerobes.
(§12) The minimal inhibitory concentration (MIC) was the lowest concentration for which no growth was observed.

[2] = tested on: Clostridium septicum; conditions: anaerobic, Mueller Hinton Agar + 2% Fildes, about 48 h at about 37° C
Description: as §1, §2, §3, §4, §5, §6, §7, §8, §9, §10, §11, §12

[3] = tested on: Escherichia coli DC2; conditions: Mueller Hinton Agar, about 18 h at about 37° C
Description: as §1, §2, §3, §4, §5, §6, §7, §8, §9, §10, §11, §12

[4] = tested on: Escherichia coli DCO; conditions: Mueller Hinton Agar, about 18 h at about 37° C
Description: as §1, §2, §3, §4, §5, §6, §7, §8, §9, §10, §11, §12

## C/C=C\C=C\C1OC(O)(C(CC)C(=O)NC/C=C/C=C(\C)C(OC)C(C)C2CC(O)C(/C=C/C=C/C=C/C(=O)O)O2)C(O)C(O)C1(C)C (stereo not shown) [formula (II)]
[1]
  MIC: > 100 µg/mL
[2]
  MIC: > 100 µg/mL
[3]
  MIC: 100 µg/mL
[4]
  MIC: > 300 µg/mL
